The source of these data is US12629319B2, “Injection apparatus and method of use” (MOBIUS THERAPEUTICS, INC., priority 2020, dated 2026).

This assay relates to Glaucoma patients. Briefly: Clinical study: subtenon injection of MMC versus MMC-soaked sponges in trabeculectomy.

Experimental: A clinical study was set up to compare the efficacy and safety of subtenon injection of mitomycin C (MMC) using the instant injection system and kits, with that of conventional application of MMC-soaked sponges in trabeculectomy. Glaucoma patients were randomized into two groups; group 1 received a subtenon injection of 0.1 mL of 0.01% MMC by the second sterile syringe, while group 2 received 0.02% MMC-soaked Weck-Cel® sponges to physically disperse the MMC. The injection was placed in the far posterior fornix on a 30-gauge needle prior to the conjunctival peritomy for trabeculectomy. Primary outcome measure is intraocular pressure (IOP), and secondary outcome measures are endothelial cell count (ECC) changes and bleb morphology according to the Indiana Bleb Appearance Grading Scale. Outcome measures were compared at 1, 3 and 6 months postoperatively. Complete and qualified success was defined as IOP within 6-15 mm Hg without and with medications at month 6, respectively.
Data was to be presented in the form of mean, SD, median and range, frequency and percentage values. Normal distribution of data was assessed by Kolmogrov-Smirnov test and Q-Q plot. To evaluate differences between the study groups, χ2, t-test and Mann-Whitney tests. Wilcoxon singed-rank test and the linear mixed model were used to assess changes within the study groups. The Wilcoxon singed-rank test is followed by Bonferroni correction to consider multiple comparisons. To compare the groups adjusted for baseline values, analysis of covariance and Poisson regression (based on the type of response) were used. All statistical analyses were performed using SPSS software (IBM SPSS Statistics for Windows, V. 23.0, Released 2014, IBM, Armonk, New York, USA). All tests were two-sided and p values less than 0.05 were considered statistically significant.

Turning to `CO[C@@]12[C@H](COC(N)=O)C3=C(C(=O)C(C)=C(N)C3=O)N1C[C@@H]1N[C@@H]12` [MMC, mitomycin C], the “dependence on glaucoma medications” value (MMC injection compared to cellulose sponge delivery, trabeculectomy) is given as “decreased”. Also, the “bleb morphology (Indiana Bleb Appearance Grading Scale)” value (MMC injection compared to trabeculectomies performed with sponges) is reported as “more favorable”. The “overall study conclusion for MMC injection versus sponge delivery” value (MMC injection through the instant apparatus and kits) is “non-inferiority with improved predictability”. In addition, the “intraocular pressure (IOP)” value (subtenon injection of 0.1 mL of 0.01% MMC compared to 0.02% MMC-soaked cellulose sponges, trabeculectomy, 1, 3 and 6 months postoperatively) is recorded as “lower”.
